Read-outs that look alike come from different tables or passages of the source.
Experiments:
PARP-1 enzyme = biological target: T1, PARP-1 enzyme (Homo sapiens, UniProt P09874); experiment: PARP-1 enzymatic activity assay (Trevigen 96-well kit); type: biochemical; conditions: 0.5 unit PARP-1, histone pre-coated plate, 60 min room temperature; read-out: The inhibitory effect of compounds on PARP-1 enzymatic activity (IC50)
T1 construct: purchased Trevigen, Inc. 4676-096-K
Protocol: Briefly, PARP-1 catalyzes the NAD-dependent addition of poly(ADP-ribose) to its nuclear protein substrates such as histones. The assay kit measures the incorporation of biotynylated poly(ADP-ribose) onto histone proteins in a 96-well format.
To each well of histone pre-coated plate 10 μl of 5-fold concentrations of testing compounds or reference compound, 15 μl of PARP-1 enzyme (0.5 unit) and 25 μl reaction buffer were added and the plates were incubated at room temperature for 60 min. The plates were washed with 200 μl PBS with 0.1% Triton X-100 twice and then with 200 μl PBS twice. The residual liquid was removed by carefully tapping the plates on paper towels. Equal volumes of PeroxyGlow™ solution A and B were mixed and 100 μl of the solution was added to each well. The luminescence readings were read immediately in a Varioskan Flash plate reader (Thermo Fisher Scientific).

[1] = tested on: Human breast cancer cell line T47D; experiment: Potentiation of MMS induced apoptosis, cell based caspase-3 activity assay; conditions: read-out: Compounds potentiate the apoptosis inducing activity of MMS (EC50);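 further: Caspase-3 activity in cell lysates measured by fluorescence (RFU), EC50 fitted from sigmoidal curve of signal versus log compound concentration in presence of MMS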
Protocol: Human breast cancer cell line T47D (Nanjing KeyGEN Biotech. CO., LTD.) was used to determine the potentiation effect of PARP-1 inhibitors on the apoptosis inducing activity of DNA damaging anticancer drugs such as MMS. Intracellular caspase-3 activity was used to measure cell apoptosis. Briefly, T47D cells were grown in DMEM/F12 cell culture medium (Hyclone) supplemented with 0.2 U/ml insulin (Genview) and 10% FBS (Hyclone). A day before experiment, 20000 of T47D cells were seeded to each well of a 96-well cell culture plate and maintained at 37° C. and 5% CO2 in a cell culture incubator overnight. On the day of experiment, cell culture medium was removed. […] The serial dilutions of the compounds to be tested and the reference compounds were made in a 1:3 and 1:10 fashion in DMSO. The 10-fold compound solutions were made by mixing 10 μl DMSO serial dilution solutions with 90 μl fresh growth medium. Twenty four hours later, the cells in the 96-well plates were centrifuged at 1000 g for 5 min and the supernatants were removed. 50 μl lysis buffer (10 mM Tris, pH 7.5, 0.1M NaCl, 1 mM EDTA, 0.01% Triton X-100) was added to each well and the plates were shaked horizontally for 30 min at 4° C. After centrifugation at 1000 g at 4° C. for 10 min, 20 μl of supernatant was transferred from each well to a corresponding well in a 384-well black plate. […] The plates were shaked to uniformly mix the wells and incubated at 37° C. for 3 h. […] The caspase-3 activity induced by the compounds was expressed as a relative fluorescence unit (RFU). The obtained fluorescence readings were analyzed using a commercial graphic software (GraphPad Prism 5) and plotted against the Log value of the compound concentrations. The EC50 values were obtained by fitting the data points with the equation of Y (fluorescence reading)=minimal fluorescence reading+(maximal fluorescence reading−minimal fluorescence reading)/(1+10̂(LogEC50−LogC)), where C is the concentration of the testing compound. The EC50 values were obtained by fitting the data points with S-shaped dose response curve equation (GraphPad Software, Inc).

[2] = tested on: SW620 human colorectal cancer cells; experiment: Potentiation of the growth inhibiting activity of MMS, MTT based cell viability assay; conditions: read-out: Compounds potentiate the growth inhibiting activity of MMS (IC50)
Protocol: The synergistic potentiation effect of PARP inhibitors on the growth inhibiting activity of DNA damaging anticancer drugs such as methyl methanesulphonate (MIMS) were measured with SW620 human colorectal cancer cells (Shanghai Cancer Institute) using a MTT based cell viability assay. SW620 cells were grown and maintained in RPMI1640 (Gibco) medium supplemented with 10% FBS (Hyclone). In the first day of experiment, 4000 cells were seeded to each well of a 96-well cell culture plate and incubated at 37° C. and 5% CO2 in a cell culture incubator overnight. In the next day, the cell culture medium was removed. […] The serial dilutions of the reference compounds and the compounds to be tested were made with a 1:3 and 1:10 fashion in DMSO. The 10-fold concentrated solutions of these compounds were made by mixing 10 μl of the serial dilutions in DMSO with 90 μl fresh medium. The final concentration of DMSO in the medium was 1%. The cells were incubated at 37° C. in 5% CO2 cell culture incubator for additional 5 days (120 hours). Afterwards, the 96-well cell culture plate was taken out and 20 μl of MTT solution was added to each well and incubated at 37° C. for 4 h. The medium was removed and 100 μl DMSO was added to each well. The 96-well cell culture plates were shaked adequately for 10 min and readed in a Varioskan Flash plate reader (Thermo Fisher Scientific) at 520 and 690 nm. The data were analyzed by Prism 5 software (GraphPad). The obtained 520 nm absorbance readings substracting corresponding 690 nm reading were analyzed and plotted against the Log scale of the compound concentrations.

[3] = tested on: BRCA-2 deficient CAPAN-1 human pancreatic cancer cells; experiment: Cell growth inhibition of BRCA-2 deficient CAPAN-1 cells, MTT based cell viability assay; conditions: read-out: Growth inhibition of CAPAN-1 cells by compounds (IC50)
Protocol: BRCA-2 deficient CAPAN-1 human pancreatic cancer cells were used to test the growth inhibiting activity of substituted 1-(arylmethyl)-5,6,7,8-tetrahydroquinazoline-2,4(1H,3H)-diones. Briefly, CAPAN-1 cells are grown and maintained in IMEM medium supplemented with 20% FBS. The assay takes 10 days to finish. On day 1, 6000 CAPAN-1 cells are seeded to each well of a 96-well plate. The cells are incubated at 37° C. in a CO2 cell culture incubator overnight. […] Ten-fold compound solutions were made by mixing 10 μl DMSO serial dilution solutions with 90 μl fresh growth medium. The cell culture medium was removed and 180 μl fresh media with FBS and 20 μl of compound solutions were added to each well. The final concentration of DMSO was 1%. Cells were then returned to the CO2 cell culture incubator and incubated at 37° C. for two days (day 3 and day 4). On day 5, the same procedure as what was done on day 2 was repeated. Cell culture medium was removed and fresh medium containing serial dilutions of compounds or reference compounds were added. Cells were returned to the CO2 cell culture incubator and incubated for two more days. On day 8, same procedure was repeated again and fresh medium containing the testing compounds or reference compounds were added and incubated for an additional 2 days. On day 10, 20 μl of MTT reagent (5 mg/ml) was added to each well of the cell culture plate and incubated for 4 h. The cell culture media was removed and 100 μl DMSO was added to each well. The 96-well cell culture plates were shaked horizontally for 10 min and readed in a Varioskan Flash plate reader (Thermo Fisher Scientific) at 520 and 690 nm. The obtained 520 nm absorbance readings substracting corresponding 690 nm reading were analyzed using a commercial graphic software (GraphPad Prism 5) and plotted against the Log scale of the compound concentrations.

[4] = T47D cells, 100 nM MMS, 24 hours, intracellular caspase-3 activity
[5] = SW620 cells, medium containing 1.5 μg/ml MMS, 5 days (120 hours), MTT
[6] = BRCA-2 deficient CAPAN-1 cells, 10 day assay, MTT

T1 sequence (P09874 whole entry): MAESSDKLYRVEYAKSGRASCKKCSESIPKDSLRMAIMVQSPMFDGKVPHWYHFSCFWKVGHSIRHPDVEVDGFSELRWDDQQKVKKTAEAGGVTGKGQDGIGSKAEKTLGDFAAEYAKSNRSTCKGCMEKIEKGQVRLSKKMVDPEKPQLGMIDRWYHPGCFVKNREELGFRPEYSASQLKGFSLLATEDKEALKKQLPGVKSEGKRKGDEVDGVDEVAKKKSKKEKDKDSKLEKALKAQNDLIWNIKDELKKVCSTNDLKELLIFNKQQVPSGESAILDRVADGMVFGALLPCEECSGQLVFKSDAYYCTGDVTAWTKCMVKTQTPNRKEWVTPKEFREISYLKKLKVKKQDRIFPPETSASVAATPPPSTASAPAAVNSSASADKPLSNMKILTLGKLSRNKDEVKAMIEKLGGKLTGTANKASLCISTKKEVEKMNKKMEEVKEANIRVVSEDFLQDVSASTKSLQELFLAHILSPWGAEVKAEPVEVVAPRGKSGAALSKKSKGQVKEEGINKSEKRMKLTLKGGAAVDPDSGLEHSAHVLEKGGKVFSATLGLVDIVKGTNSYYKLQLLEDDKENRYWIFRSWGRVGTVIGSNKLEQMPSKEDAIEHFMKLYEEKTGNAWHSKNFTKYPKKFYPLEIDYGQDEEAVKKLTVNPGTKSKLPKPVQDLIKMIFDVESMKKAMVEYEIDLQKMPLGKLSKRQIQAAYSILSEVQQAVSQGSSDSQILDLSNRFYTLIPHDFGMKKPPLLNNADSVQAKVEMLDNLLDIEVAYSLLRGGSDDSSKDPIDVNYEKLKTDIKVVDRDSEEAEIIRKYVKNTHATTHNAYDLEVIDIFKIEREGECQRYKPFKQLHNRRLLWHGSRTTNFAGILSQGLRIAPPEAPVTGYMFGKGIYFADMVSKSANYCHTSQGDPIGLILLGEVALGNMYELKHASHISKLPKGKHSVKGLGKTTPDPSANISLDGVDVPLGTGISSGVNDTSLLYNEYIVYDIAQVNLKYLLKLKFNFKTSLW

IC50 (PARP-1 enzyme) [nM] | EC50 ([1]; Homo sapiens, T47D, 24 h) [nM] | IC50 ([2]; Homo sapiens, SW-620, 120 h) [nM] | IC50 ([3]; Homo sapiens, CAPAN-1, 240 h) [nM] | EC50 [1, 4] [nM] | IC50 [2, 5] [nM] | IC50 [3, 6] [nM] | SMILES
– | 2.8 | 1.7 | 117 | – | – | – | O=C(c1cc(Cn2c3c(c(=O)[nH]c2=O)CCCC3)ccc1F)N1CCN(C(=O)C2CCC2)CC1 [Example 22, 1-(4-Fluoro-3-(4-(cyclobutylcarbonyl)piperazine-1-carbonyl)benzyl)-5,6,7,8-tetrahydroquinazoline-2,4(1H,3H)-dione]
– | 9.9 | 3.6 | 58 | – | – | – | O=C(c1cc(Cn2c3c(c(=O)[nH]c2=O)CCCC3)ccc1F)N1CCN(C(=O)C2CCCCC2)CC1 [Example 24, 1-(4-Fluoro-3-(4-(cyclohexylcarbonyl)piperazine-1-carbonyl)benzyl)-5,6,7,8-tetrahydroquinazoline-2,4(1H,3H)-dione]
– | 6.2 | 1.9 | 69 | – | – | – | O=C(c1cc(Cn2c3c(c(=O)[nH]c2=O)CCCC3)ccc1F)N1CCN(C(=O)C2CCCC2)CC1 [Example 25, 1-(4-Fluoro-3-(4-(cyclopentylcarbonyl)piperazine-1-carbonyl)benzyl)-5,6,7,8-tetrahydroquinazoline-2,4(1H,3H)-dione]
– | 58 | 9.7 | 81 | – | – | – | O=C(c1ccco1)N1CCN(C(=O)c2cc(Cn3c4c(c(=O)[nH]c3=O)CCCC4)ccc2F)CC1 [Example 27, 1-(4-Fluoro-3-(4-(furan-2-carbonyl)piperazine-1-carbonyl)benzyl)-5,6,7,8-tetrahydroquinazoline-2,4(1H,3H)-dione]
– | 32 | 12 | 1240 | – | – | – | O=C(c1cc(Cn2c3c(c(=O)[nH]c2=O)CCCC3)ccc1F)N1CCN(C2CCCCC2)CC1 [Example 30, 1-(4-Fluoro-3-(4-cyclohexylpiperazine-1-carbonyl)benzyl)-5,6,7,8-tetrahydroquinazoline-2,4(1H,3H)-dione]
– | 12 | 4 | 285 | – | – | – | O=C(c1ccoc1)N1CCN(C(=O)c2cc(Cn3c4c(c(=O)[nH]c3=O)CCCC4)ccc2F)CC1 [Example 35, 1-(4-Fluoro-3-(4-(furan-3-carbonyl)piperazine-1-carbonyl)benzyl)-5,6,7,8-tetrahydroquinazoline-2,4(1H,3H)-dione]
– | 13 | 3.4 | 221 | – | – | – | O=C(c1ccsc1)N1CCN(C(=O)c2cc(Cn3c4c(c(=O)[nH]c3=O)CCCC4)ccc2F)CC1 [Example 36, 1-(4-Fluoro-3-(4-(thiophene-3-carbonyl)piperazine-1-carbonyl)benzyl)-5,6,7,8-tetrahydroquinazoline-2,4(1H,3H)-dione]
– | 25 | 10 | 2270 | – | – | – | O=C(c1cc(Cn2c3c(c(=O)[nH]c2=O)CCCC3)ccc1F)N1CCN(CC2CCCCC2)CC1 [Example 38, 1-(4-Fluoro-3-(4-(cyclohexylmethyl)piperazine-1-carbonyl)benzyl)-5,6,7,8-tetrahydroquinazoline-2,4(1H,3H)-dione]
– | 32 | 15 | 152 | – | – | – | O=C(c1cc(Cn2c3c(c(=O)[nH]c2=O)CCCC3)ccc1F)N1CCN(C(=O)C2CCCO2)CC1 (stereo not shown) [Example 39, 1-(4-Fluoro-3-(4-(tetrahydrofuran-2-carbonyl)piperazine-1-carbonyl)benzyl)-5,6,7,8-tetrahydroquinazoline-2,4(1H,3H)-dione]
– | 4 | 4.8 | 146 | – | – | – | O=C(c1ccc(F)c(Cn2c3c(c(=O)[nH]c2=O)CCCC3)c1)N1CCN(C(=O)C2CCCC2)CC1 [Example 42, 1-(6-Fluoro-3-(4-(cyclopentylcarbonyl)piperazine-1-carbonyl)benzyl)-5,6,7,8-tetrahydroquinazoline-2,4(1H,3H)-dione]
– | 12 | 16 | 1000 | – | – | – | O=C(c1ccc(F)c(Cn2c3c(c(=O)[nH]c2=O)CCCC3)c1)N1CCN(C(=O)C2CCC2)CC1 [Example 50, 1-(6-Fluoro-3-(4-(cyclobutylcarbonyl)piperazine-1-carbonyl)benzyl)-5,6,7,8-tetrahydroquinazoline-2,4(1H,3H)-dione]
– | – | – | – | 98 | 61 | 272 | O=C(c1cc(Cn2c3c(c(=O)[nH]c2=O)CCCC3)ccc1F)N1CCN(C(=O)C2CCOCC2)CC1 [Example 53, 1-(4-Fluoro-3-(4-(tetrahydro-2H-pyran-4-carbonyl)piperazine-1-carbonyl)benzyl)-5,6,7,8-tetraquinazoline-2,4(1H,3H)-dione]

Further lines, the compound ahead of its results:

SMILES | IC50 (PARP-1 enzyme) [nM] | EC50 ([1]; Homo sapiens, T47D, 24 h) [nM] | IC50 ([2]; Homo sapiens, SW-620, 120 h) [nM] | IC50 ([3]; Homo sapiens, CAPAN-1, 240 h) [nM] | EC50 [1, 4] [nM] | IC50 [2, 5] [nM] | IC50 [3, 6] [nM]
O=C(c1cc(Cn2c3c(c(=O)[nH]c2=O)CCCC3)ccc1F)N1CCN(c2ncccn2)CC1 [Example 20] | 2.6 | 0.99 | 0.83 | 17 | – | – | –
O=C(c1cc(Cn2c3c(c(=O)[nH]c2=O)CCCC3)ccc1F)N1CCN(c2nccs2)CC1 [Example 23, 1-(4-Fluoro-3-(4-(thiazol-2-yl)piperazine-1-carbonyl)benzyl)-5,6,7,8-tetrahydroquinazoline-2,4(1H,3H)-dione] | – | 1.6 | 1.5 | 49 | – | – | –
O=C(c1cc(Cn2c3c(c(=O)[nH]c2=O)CCCC3)ccc1F)N1CCN(c2ccccn2)CC1 [Example 26, 1-(4-Fluoro-3-(4-(pyridin-2-yl)piperazine-1-carbonyl)benzyl)-5,6,7,8-tetrahydroquinazoline-2,4(1H,3H)-dione] | – | 5.6 | 2.3 | 93 | – | – | –
O=C(c1cc(Cn2c3c(c(=O)[nH]c2=O)CCCC3)ccc1F)N1CCN(c2cnccn2)CC1 [Example 28, 1-(4-Fluoro-3-(4-(pyrazin-2-yl)piperazine-1-carbonyl)benzyl)-5,6,7,8-tetrahydroquinazoline-2,4(1H,3H)-dione] | – | 14 | 4.9 | 297 | – | – | –
O=C(c1cc(Cn2c3c(c(=O)[nH]c2=O)CCCC3)ccc1F)N1CCN(c2ccccc2)CC1 [Example 33, 1-(4-Fluoro-3-(4-phenylpiperazine-1-carbonyl)benzyl)-5,6,7,8-tetrahydroquinazoline-2,4(1H,3H)-dione] | – | 187 | 7.6 | 3650 | – | – | –
O=C(c1ccc(F)c(Cn2c3c(c(=O)[nH]c2=O)CCCC3)c1)N1CCN(c2ncccn2)CC1 [Example 41] | – | – | – | – | 2.2 | 4.1 | 19
O=C(c1ccsc1)N1CCN(C(=O)c2ccc(F)c(Cn3c4c(c(=O)[nH]c3=O)CCCC4)c2)CC1 [Example 46, 1-(6-Fluoro-3-(4-(thiophene-3-carbonyl)piperazine-1-carbonyl)benzyl)-5,6,7,8-tetrahydroquinazoline-2,4(1H,3H)-dione] | – | 13 | 10 | 703 | – | – | –
O=C(c1ccc(F)c(Cn2c3c(c(=O)[nH]c2=O)CCCC3)c1)N1CCN(c2ccccn2)CC1 [Example 47, 1-(6-Fluoro-3-(4-(pyridin-2-yl)piperazine-1-carbonyl)benzyl)-5,6,7,8-tetrahydroquinazoline-2,4(1H,3H)-dione] | – | 6.4 | 4.6 | 116 | – | – | –
O=C(c1ccc(F)c(Cn2c3c(c(=O)[nH]c2=O)CCCC3)c1)N1CCN(C(=O)C2CCCCC2)CC1 [Example 49, 1-(6-Fluoro-3-(4-(cyclohexylcarbonyl)piperazine-1-carbonyl)benzyl)-5,6,7,8-tetrahydroquinazoline-2,4(1H,3H)-dione] | – | 7.2 | 5.3 | 123 | – | – | –
O=C(c1ccc(F)c(Cn2c3c(c(=O)[nH]c2=O)CCCC3)c1)N1CCN(c2nccs2)CC1 [Example 51, 1-(6-Fluoro-3-(4-(thiazol-2-yl)piperazine-1-carbonyl)benzyl)-5,6,7,8-tetrahydroquinazoline-2,4(1H,3H)-dione] | – | 11 | 13 | 134 | – | – | –
O=C(c1cc(Cn2c3c(c(=O)[nH]c2=O)SCCC3)ccc1F)N1CCN(c2ncccn2)CC1 [Example 60] | – | – | – | – | 30 | 7.6 | 761
